Data published in patent US12485127B2, “Compositions and methods for treatment and prevention of actinic keratosis using copper chlorin” (CHL Industries, LLC, priority 2024, dated 2025).
Where two headings read alike, the source gives them in different places.

Key:
[1] = system: HPV-11 (HE611260.1 strain); conditions: HPV-11 replicon assay; reference range; read-out: EC50 value range of the reference compound for this assay; cited from earlier work
[2] = system: HPV-31 (strain: HQ53768.1); test: HPV-31 genome plasmid replication assay in C-33 A cells; type: cell-based, human papillomavirus; conditions: for EC50 / EC90: host cell line C-33A
Description: (§1) The in vitro testing of the chlorin compounds and the positive control for antiviral cytopathic effect (CPE) was conducted through The National Institute of Allergy and Infectious Diseases (NIAID) NCEA Program. The in vitro testing was done by the method described by Beadle J R, Valiaeva N, Yang G, Yu J H, Broker T R, Aldern K A, et al. Synthesis and Antiviral Evaluation of Octadecyloxyethyl Benzyl 9-[(2-Phosphonomethoxy)ethyl]guanine (ODE-Bn-PMEG), a Potent Inhibitor of Transient HPV DNA Amplification. J Med Chem. 2016; 59(23):10470-8. PubMed PMID: 27933957. This method uses an HPV-11 replicon assay. The replicon (pMP619) is transfected into C-33 A cells grown as monolayers in 384-well plates. At 48 hours post transfection, the enzymatic activity of the destabilized NanoLuc reporter is assessed with NanoGlo reagent. […] The host C-33 A cells are epithelial cells originally isolated from the cervix of a uterine cancer patient. For reasons previously mentioned in this application, in vitro testing of compounds for potential antiviral activity against HPV strains cannot use human keratinocytes as the host cells due to the variable HPV replication activity with this cell line.
(§2) The EC50 (or Effective Concentration 50) is the concentration of the test compound in micromoles that reduces virus replication by 50%. The EC90 (or Effective Concentration 90) is the concentration of the test compound in micromoles that reduces virus replication by 90%. CC50 (or Cytotoxic Concentration 50) is the concentration of the test compound in micromoles that reduces the cell viability of the virus host cell by 50%. The SI50 (or Selectivity Index 50) is a measure of both safety and efficacy or therapeutic index and is calculated by dividing the CC50 by the EC50. The SI90 (Selectivity Index 90) is calculated by dividing the CC50 by the EC90.
(§3) The in vitro test method used to assess activity of copper chlorins according to embodiments herein against HPV-18 and HPV-31 used the same replication and quantification method described previously for Table 1 results but with HPV-18 and HPV-31 genome plasmids. Results of the in vitro testing of three of the same copper chlorins as used in Table 1, as well as the same control, against HPV 18 and HPV 31 are summarized in Table 2 and Table 3 below.

[3] = system: HPV-18 (strain: KC470230.1); test: HPV-18 genome plasmid replication assay in C-33 A cells; type: cell-based, human papillomavirus; conditions: for EC50 / EC90: host cell line C-33A
Description: as §1, §2, §3

[4] = Cytotoxicity to virus host cell (CC50); type: cell-based, human; conditions: human, C-33A host cells
[5] = system: HPV-11 (HE611260.1 strain); test: HPV-11 replicon assay (NanoLuc reporter) in C-33 A cells; type: cell-based, human papillomavirus; conditions: for EC90 / EC50: host cell line C-33A; for EC50: 48 hours post transfection
Description: as §1
The control compound, PMEG, has a molecular weight of 289.188 g/mol. The molecular weight of the copper chlorin compounds evaluated are (1) 661.5 g/mol for disodium copper isochlorin e4; (2) 710.5 g/mol for trisodium copper chlorin p6; (3) 724.15 g/mol for trisodium copper chlorin e6; and (4) 740 g/mol for trisodium copper rhodin g7. The antiviral test results in Table 1 for each treatment composition and the control are reported in micromoles (uM) for the EC50, EC90, and CC50. The SI 50 and SI 90 are calculated from the EC50, EC90, and CC50 data.
as §2

[6] = system: Human neonatal epidermal keratinocytes (HEKn); test: Transcriptome study (Clariom S) of gene regulation in keratinocytes; type: cell-based; conditions: 20 ug/mL; 24-hour exposure; versus water control
Description: The transcriptome study of copper chlorins was conducted by Sunny Biodiscovery laboratory and Thermo-Fisher Scientific Microarray Research Services Laboratory, both of Santa Clara, California to determine gene regulatory activity and biomarkers associated with activity of the copper chlorins on human skin by assessing gene expression from keratinocyte culture after 24-hour exposure of each of the copper chlorins as previously detailed in U.S. Provisional Application Ser. No. 63/233,229 (filed on Aug. 14, 2021).
Human neonatal epidermal keratinocytes (HEKn) were obtained from Cell Applications 5 (San Diego, CA) and were plated in a 96 well plate (Bioland Scientific, Paramount, CA, item #701003 made of high clarity polystyrene) with keratinocyte growth media (Human EpiVita Serum-Free Growth Medium for Neonatal Cells; Cell Applications, San Diego, CA). Cells were mixed with growth media at a rate of 10,000 cells per 200 μl (approximately 10^4 cells per well) and added to the 96 wells (0.2 mL/well) and incubated overnight at 37° C.
Following the overnight incubation of keratinocytes, each of the 4 copper chlorins evaluated was separately dissolved in sterile distilled water at a concentration of 20 mg/mL. Dissolution occurs at 20-25° C. with slight agitation for 1-2 minutes until no solid particles were visible. This stock solution of 20 mg/mL was then further diluted with sterile water to a concentration of 500 μg/mL. The 500 μg/mL solution of each test copper chlorin was added to the cells in the growth media at a ratio of 1:20 (test solution: cells & media) and incubated in the wells for 24 hours at 37° C.
The following day the test solution and growth media were removed from the wells and the cells were rinsed with phosphate-buffered saline (PBS). The RNA from the cells treated with each of the test compounds was extracted and purified with a RNeasy Mini Plus Kit (Catalogue #74134; Qiagen, Germantown, MD) with automated lysing and homogenization using a Qiacube Connect robotic station (Qiagen, Germantown, MD). The protocol for RNA extraction is selected on the Qiacube Connect automated station and cell samples, labware, and reagents are loaded as instructed. Cells are first lysed and homogenized in highly denaturing guanidine-isothiocyanate-containing Buffer RLT Plus, which immediately inactivates RNases to ensure isolation of intact RNA. The lysate is passed through Qiacube Connect loaded gDNA Eliminator spin columns, 15 ethanol is added to the flow-through, and the samples are then applied to Qiacube preloaded RNeasy MinElute spin columns. RNA binds to the membrane and contaminants are washed away. High quality RNA is eluted and collected in a total of 30 μL sterile distilled water.
The stepwise procedure for production of RNA using RNeasy Plus procedure is outlined FIG. 4. Once collected, the purity of the RNA is assessed with the NanoDrop Lite spectrophotometer (Thermo Fisher Scientific, Waltham, MA) at 260 nm and 280 nm. The NanoDrop Lite unit is a small, stand-alone UV spectrophotometer that is designed 5 to measure microvolumes (1-2 μL) of nucleic acid and protein samples. Purity of the collected RNA was verified by adding 1 μL of the collected RNA to the NanoDrop Lite unit, selecting the RNA application on the NanoDrop Lite Home screen and following the stepwise measuring procedure as detailed in the NanoDrop Lite Manual.
The extracted RNA for each of the four treatment compositions evaluated from the above procedure was then transported on dry ice to a laboratory specializing in transcriptome analysis (Thermo Fisher Scientific Microarray Research Services Laboratory, Santa Clara, CA). The transcriptome profiling of the RNA samples was conducted using the Clariom S GeneChip® Pico Assay platform. […]

[7] = system: C-33 A cells; test: Cytotoxicity to virus host cell (CC50); type: cell-based, human
[8] = system: actinic keratosis; conditions: cited from earlier work

Nc1nc2c(ncn2CCOCP(=O)(O)O)c(=O)[nH]1 [9-[2-(phosphono-methoxy)-ethyl]guanine, reference compound]
EC50 [1]: 2 to 9.2 µM
EC50 ([2]; Human papillomavirus): 3.92 µM
EC90 ([2]; Human papillomavirus): 18.4 µM
EC50 ([3]; Human papillomavirus): 2.33 µM
EC90 ([3]; Human papillomavirus): 21.3 µM
CC50 ([4]; HPV-11 test (Table 1)): > 150 µM
CC50 ([4]; HPV-18 test (Table 2)): > 250 µM
CC50 ([4]; HPV-31 test (Table 3)): > 250 µM
EC90 ([5]; Human papillomavirus): > 150 µM
EC50 ([5]; Human papillomavirus): 2.27 µM

C=Cc1c(C)c2cc3nc(c(CC(=O)[O-])c4[n-]c(cc5nc(cc1[n-]2)C(C)=C5CC)c(C)c4C(=O)[O-])C(CCC(=O)[O-])C3C.[Cu+2].[Na+].[Na+].[Na+] (centres unmarked) [Trisodium copper chlorin e6]
antiviral activity classification based on SI50 [2]: moderately active (SI50=10−49, moderately active)
EC50 [2]: 1.75 µM
EC90 [2]: 3.8 µM
EC50 [3]: 1.42 µM
EC90 [3]: 2.97 µM
CDKN1A cyclin-dependent kinase inhibitor 1A (p21, Cip1) gene regulation (keratinocytes) [6]: +2.22 fold
CYB561 Cytochrome b561 gene regulation (keratinocytes) [6]: −2.28 fold
EPGN Epithelial mitogen gene regulation (keratinocytes) [6]: −2.56 fold
MAPK14 Mitogen-activated protein kinase 14 gene regulation (keratinocytes) [6]: −2.23 fold
EC50 converted from micromoles ([5]; converted with molecular weight 724.15): 1.998 µg/mL
EC90 [5]: 24.9 µM
EC50 [5]: 2.76 µM

C=Cc1c(C)c2cc3nc(c(C(=O)[O-])c4[n-]c(cc5nc(cc1[n-]2)C(C)=C5CC)c(C)c4C(=O)[O-])C(CCC(=O)[O-])C3C.[Cu+2].[Na+].[Na+].[Na+] (centres unmarked) [Trisodium copper chlorin p6]
KDM7A lysine (K)-specific demethylase 7A gene regulation (keratinocytes) [6]: +2.38 fold
UNC5B Unc-5 netrin receptor B gene regulation (keratinocytes) [6]: +3.59 fold
CC50 [7]: 58.4 µM
EC90 [5]: 23.6 µM
EC50 [5]: 5.51 µM

O=C(O)Cc1ccccc1Nc1c(Cl)cccc1Cl [diclofenac]
AK recurrence rate ([8]; after 12 months from initial treatments): 85%

O=C(Cc1ccc(-c2ccc(OCCN3CCOCC3)cc2)cn1)NCc1ccccc1 [turbanibulin]
sustained complete clearance ([8]; after one year, estimated): ~27%
Initial complete clearance ([8]; trial 1 vs trial 2): 44-54%

Disodium copper isochlorin e4
EC50 [2]: 0.25 µM
EC90 [2]: 4.45 µM
EC50 [3]: 3.2 µM
EC90 [3]: 6.09 µM
CDKN1A cyclin-dependent kinase inhibitor 1A (p21, Cip1) gene regulation (keratinocytes) [6]: +2.46 fold
EPGN Epithelial mitogen gene regulation (keratinocytes) [6]: −3.17 fold
KDM7A lysine (K)-specific demethylase 7A gene regulation (keratinocytes) [6]: +2.62 fold
UNC5B Unc-5 netrin receptor B gene regulation (keratinocytes) [6]: +8.06 fold
EC90 [5]: 20.6 µM
EC50 [5]: 4.63 µM

Trisodium copper rhodin g7
EC50 [2]: 0.36 µM
EC90 [2]: 1.62 µM
antiviral activity classification based on SI50 [3]: highly active (SI50>50 highly active)
EC50 [3]: 1.19 µM
EC90 [3]: 2.62 µM
EC90 [5]: 58.8 µM
EC50 [5]: 4.48 µM
